Experimental data: patent publication US20260215418A1, “HYDROCARBON ALCOHOLS AND THEIR DERIVATIVES AS SYNERGISTS IN PESTICIDE ACTIVITY” (priority 2022, published 2026)
Read-outs that look alike come from different tables or passages of the source.

Legend:
Musca domestica L. = experiment: Contact test on non-porous tile, Musca domestica; format: in vivo; set-up: Mortality %: concentration or dose not given beside the values; details: for mortality at 680 µg/mL: 0.68 mg/ml; for Mortality %: insects on treated tile
Experimental: 1 ml of Composition 1 was applied to the tile. […] 1 ml of Composition 8a was distributed on the tile. […] 1 ml of Composition 8a was distributed on a tile. […] At the end of the 30 minutes, the flies were transferred to an untreated area.
1 ml of Composition 3 was applied to the tile. […] 1 ml of Composition 8c was distributed on the tile. […] 1 ml of Composition 8c was distributed on a tile. […] At the end of the 30 minutes, the flies were transferred to an untreated area.
1 ml of Composition 9a was distributed on the tile. […] 1 ml of Composition 9a was distributed on a tile. […] At the end of the 30 minutes, the flies were transferred to an untreated area. […] 1 ml of Composition 10a was distributed on the tile. […] 1 ml of Composition 10a was distributed on a tile. […] At the end of the 30 minutes, the flies were transferred to an untreated area. […] 1 ml of Composition 8c was distributed on the tile. […] 1 ml of Composition 8c was distributed on a tile. […] At the end of the 30 minutes, the flies were transferred to an untreated area.
1 ml of Composition 5a, was distributed on the tile. […] 1 ml of Composition 6a was distributed on the tile. […] 1 ml of Composition 7a was distributed on the tile.
1 ml of Composition 3 was distributed on the tile. […] 1 ml of Composition 9a was distributed on the tile. […] 1 ml of Composition 11a was distributed on a tile. […] 1 ml of Composition 12a was distributed on a tile.
1 ml of Composition 3 was distributed on the tile. […] 1 ml of Composition 17a was distributed on a tile. […] 1 ml of Composition 18a was distributed on a tile. […] Each experiment (A-C) was conducted in duplicate.
1 ml of Composition 23a was distributed on the tile. […] 1 ml of Composition 20a was distributed on a tile. […] Each experiment (A-B) was conducted in duplicate.
1 ml of Composition 3 was distributed on the tile. […] 1 ml of Composition 25a was distributed on a tile. […] Each experiment (A-B) was conducted in duplicate.
1 ml of Composition 23a was distributed on the tile. […] 1 ml of Composition 27a was distributed on a tile. […] Each experiment (A-B) was conducted in duplicate.
1 ml of Composition 26a was distributed on a tile. […] 1 ml of Composition 26b was distributed on a tile. […] 1 ml of Composition 26c was distributed on a tile.
1 ml of Composition 22a was distributed on a tile. […] 1 ml of Composition 22b was distributed on a tile. […] 1 ml of Composition 22c was distributed on a tile.
1 ml of Composition 23a was distributed on the tile. […] 1 ml of Composition 44a was distributed on a tile.
1 ml of Composition 33 was distributed on a tile. […] 1 ml of Composition 33 was distributed on a tile. […] At the end of the 30 minutes, the flies were transferred to an untreated area.
1 ml of Composition 1 was distributed on the tile. […] 1 ml of Composition 34 was distributed on a tile. […] 1 ml of Composition 34 was distributed on a tile. […] At the end of the 30 minutes, the flies were transferred to an untreated area.
1 ml of Composition 3 was distributed on the tile. […] 1 ml of Composition 31a was distributed on a tile. […] 1 ml of Composition 31b was distributed on a tile. […] 1 ml of Composition 31b was distributed on a tile. […] At the end of the 30 minutes, the flies were transferred to an untreated area. […] 1 ml of Composition 38a was distributed on a tile. […] 1 ml of Composition 38a was distributed on a tile. […] At the end of the 30 minutes, the flies were transferred to an untreated area.
G) According to the invention. 1 ml of Composition 40a was distributed on a tile. […] Subsequently, after waiting for the solvent to evaporate, 10 flies were placed on top of the treated til

Blatta orientalis = details: for Mortality %/time (h) (application): Table 37, concentrations in mg/ml in label; for Mortality %/time (h) (application) / synergizing effect on Cypermethrin: Blatta orientalis; for synergizing effect on Cypermethrin: synergist applied with Cypermethrin; for Mortality %: Example 36, 25° C, insects on treated tile
Experimental: Method: Contact test on non-porous tile measuring 400 cm^2 at a temperature of 28° C. Test duration: up to 72 hours after exposure of the insect to the insecticidal active substance.
(§1) Three tests were performed in parallel, A, B, and C, as follows: • A) Comparative. 1 ml of Composition 2 was applied to the tile. After waiting for the complete evaporation of the solvent, 10 cockroaches were placed on top of the treated tile, starting the test. • B) According to the invention. 1 ml of Composition 8b was distributed on the tile. After waiting for the complete evaporation of the solvent, 1 ml of Composition 2 was added to the same tile. Subsequently, after waiting for the solvent to evaporate, 10 cockroaches were placed on top of the treated tile, starting the test. • C) According to the invention. 1 ml of Composition 8b was distributed on a tile. After waiting for the complete evaporation of the solvent, 10 cockroaches were placed for 30 minutes on top of the treated tile. At the end of the 30 minutes, the cockroaches were transferred to an untreated area.
Method: Contact test on non-porous tile measuring 400 cm^2 at a temperature of 28° C. Test duration: up to 120 hours after exposure of the insect to the insecticidal active substance.
as §1, with “4a” for “2”, “8d” for “8b”, “After” for “Subsequently, after”
Six tests were performed in parallel, A, B, C, D, E and F, as follows: • A) Comparative. 1 ml of Composition 9b was distributed on the tile. After waiting for the complete evaporation of the solvent, 1 ml of Composition 4a was added to the same tile. Subsequently, after waiting for the solvent to evaporate, 10 cockroaches were placed on top of the treated tile, starting the test. • B) Comparative. 1 ml of Composition 9b was distributed on a tile. After waiting for the complete evaporation of the solvent, 10 cockroaches were placed for 30 minutes on top of the treated tile. At the end of the 30 minutes, the cockroaches were transferred to an untreated area. […] 1 ml of Composition 10b was distributed on the tile. After waiting for the complete evaporation of the solvent, 1 ml of Composition 4a was added to the same tile. Subsequently, after waiting for the solvent to evaporate, 10 cockroaches were placed on top of the treated tile, starting the test. • D) Comparative. 1 ml of Composition 10b was distributed on a tile. After waiting for the complete evaporation of the solvent, 10 cockroaches were placed for 30 minutes on top of the treated tile. At the end of the 30 minutes, the cockroaches were transferred to an untreated area. […] 1 ml of Composition 8d was distributed on the tile. After waiting for the complete evaporation of the solvent, 1 ml of Composition 4a was added to the same tile. Subsequently, after waiting for the solvent to evaporate, 10 cockroaches were placed on top of the treated tile, starting the test. • F) According to the invention. 1 ml of Composition 8d was distributed on a tile. After waiting for the complete evaporation of the solvent, 10 cockroaches were placed for 30 minutes on top of the treated tile. At the end of the 30 minutes, the cockroaches were transferred to an untreated area.

[1] = Musca domestica, single substance alone, 48 h, read-out: Mortality %/time (h)

For `COP(=O)(OC)SCn1c(=O)oc2cc(Cl)cnc21` [Azamethiphos], which mortality at 6900 µg/mL (Musca domestica L.; Musca domestica, 48 h, read-out: Mortality %/time (h)) is on record?
Its mortality at 6900 µg/mL is 23%.

With `CCCCCCCC/C=C\CCCCCCCCOC(C)=O` [Composition 25b, Oleyl acetate] as the compound, how does the “Mortality %/time (h) (application)” value (Blatta orientalis; 48 h) read?
The value was 0/48 ^ %.

For `OCCCCCCCCO` [1,8-octandiol], which mortality at 680 µg/mL (Musca domestica L.; [1]) is on record?
The mortality at 680 µg/mL was 0%.

Which “synergizing effect on Cypermethrin” value (Blatta orientalis) does the source give for `CCCCCCCCCCCCOC(C)=O` [dodecyl acetate] here?
Its value is “excellent-fine synergizing effect”.

Which “Mortality %/time (h) (application)” value (Blatta orientalis; 48 h) does the source give for `CCCCC(O)CO` (stereo not shown) [1,2-hexandiol (0.84), 1,2-hexandiol] here?
The value was 0/48 ^ %.

For `CCCCC(CC)COC(=O)OCC(CC)CCCC` (stereo not shown) [Composition 17b, Bis(2-ethyl-hexyl)-carbonate], which “Mortality %/time (h) (application)” value (Blatta orientalis; 48 h) is on record?
The value was 0/48 ^ %.

Which results are given for `CC1(C)C(C=C(Cl)Cl)C1C(=O)OC(C#N)c1cccc(Oc2ccccc2)c1` (stereo not shown) [Composition 46b, Cypermethrin]?
Mortality % (Blatta orientalis; 24 h): 8%; Mortality % (Blatta orientalis; 48 h): 17%; Mortality %/time (h) (application) (Blatta orientalis; 48 h, listed as Cypermethrin (0.10)): 17/48 ^ %

Which Mortality % (Musca domestica L.; Example 14, 21° C, 48 h) does the source give for `COP(=O)(OC)SCn1c(=O)oc2cc(Cl)cnc21` [Composition 23a, Azamethiphos, reference compound] here?
The Mortality % was 23%.

What about the Mortality % (Musca domestica L.; Example 18, 21° C, 24 h) of the same compound?
The Mortality % was 23%.

And the Mortality % (Musca domestica L.; Example 24, 25° C, 24 h)?
The Mortality % was 10%.

What about the Mortality % (Musca domestica L.; Example 30, 25° C, 24 h) of the same compound?
Its Mortality % is 10%.

What about the Mortality % (Musca domestica L.; Example 30, 25° C, 48 h) of the same compound?
The Mortality % was 23%.

“Spinosad [Composition 43, reference compound]” was tested. Which Mortality % (Musca domestica L.; Example 19, 25° C, 24 h) did it give?
Its Mortality % is 27%.

What about the Mortality % (Musca domestica L.; Example 23, 25° C, 24 h) of the same compound?
The Mortality % was 27%.

And the Mortality % (Musca domestica L.; Example 27, 25° C, 24 h)?
Its Mortality % is 27%.

How did the “Mortality %/time (h) (application)” value (Blatta orientalis; 48 h) turn out when Alcohol oleic [Composition 20b] was run?
The value was 0/48 ^ %.

With `CCCCCCCCOC(=O)OCCCCCCCC` [Composition 18b, Dioctyl carbonate] as the compound, how does the “Mortality %/time (h) (application)” value (Blatta orientalis; 48 h) read?
Its value is 0/48 ^ %.

Which mortality at 680 µg/mL (Musca domestica L.; [1]) does the source give for `CCCCCCC(O)CO` (stereo not shown) [1,2-octandiol] here?
Its mortality at 680 µg/mL is 0%.

For `CC1(C)C(C=C(Cl)Cl)C1C(=O)OC(C#N)c1cccc(Oc2ccccc2)c1` (stereo not shown) [Composition 3, Cypermethrin, reference compound], which Mortality % (Musca domestica L.; Example 3, 26° C, 24 h) is on record?
Its Mortality % is 10%.

And the Mortality % (Musca domestica L.; Example 3, 26° C, 48 h)?
Its Mortality % is 20%.

What about the Mortality % (Musca domestica L.; Example 9, 21° C, 24 h) of the same compound?
Its Mortality % is 5%.

What about the Mortality % (Musca domestica L.; Example 9, 21° C, 48 h) of the same compound?
The Mortality % was 16%.

And the Mortality % (Musca domestica L.; Example 12, 21° C, 24 h)?
The Mortality % was 5%.

What about the Mortality % (Musca domestica L.; Example 12, 21° C, 48 h) of the same compound?
Its Mortality % is 16%.

And the Mortality % (Musca domestica L.; Example 17, 21° C, 48 h)?
The Mortality % was 16%.

What about the Mortality % (Musca domestica L.; Example 29, 25° C, 24 h) of the same compound?
The Mortality % was 10%.

What about the Mortality % (Musca domestica L.; Example 29, 25° C, 48 h) of the same compound?
The Mortality % was 16%.

With oleic alcohol [Composition 8b] as the compound, how does the “Mortality %/time (h) (application)” value (Blatta orientalis; 48 h) read?
Its value is 0/48 ^ %.

With `CCCCCCCCOC(C)=O` [n-Octyl acetate] as the compound, how does the “synergizing effect on Cypermethrin” value (Blatta orientalis) read?
Its value is “excellent-fine synergizing effect”.

With `CC1(C)C(C=C(Cl)Cl)C1C(=O)OC(C#N)c1cccc(Oc2ccccc2)c1` (stereo not shown) [Composition 46a, Cypermethrin, reference compound] as the compound, how does the Mortality % (Musca domestica L.; Example 35, 25° C, 24 h) read?
The Mortality % was 5%.

What about the Mortality % (Musca domestica L.; Example 35, 25° C, 48 h) of the same compound?
The Mortality % was 10%.

`CCCCCCCCCCC(O)CO` (stereo not shown) [1,2-dodecandiol] was tested. Which mortality at 680 µg/mL (Musca domestica L.; [1]) did it give?
The mortality at 680 µg/mL was 0%.

How did the mortality at 230 µg/mL (Musca domestica L.; Musca domestica, single substance alone, 0.23 mg/ml, 48 h, read-out: Mortality %/time (h)) turn out when `CC1(C)C(C=C(Cl)Cl)C1C(=O)OC(C#N)c1cccc(Oc2ccccc2)c1` (stereo not shown) [Cypermethrin] was run?
Its mortality at 230 µg/mL is 10%.

And the mortality at 450 µg/mL (Musca domestica L.; Musca domestica, single substance alone, 0.45 mg/ml, 48 h, read-out: Mortality %/time (h))?
The mortality at 450 µg/mL was 16%.

Which mortality at 680 µg/mL (Musca domestica L.; [1]) does the source give for `CCCCCCCCCCCCO` [Dodecanol] here?
Its mortality at 680 µg/mL is 4%.
